Experimental data taken from publication PMC11240139, “Exploring the antitumor potential of novel quinoline derivatives via tubulin polymerization inhibition in breast cancer; design, synthesis and molecular docking” (RSC Advances, 2024).

Assays:
Experiment in all cases: NCI-60 SRB cytotoxicity screen
Assay type in all cases: cell-based
[1] = tested on: M14 (melanoma); conditions: Homo sapiens; M14, single dose 10 μM; read-out: growth inhibition (GI%)
[2] = tested on: K-562 (leukemia); conditions: Homo sapiens; K-652 [sic], single dose 10 μM; read-out: growth inhibition (GI%)
[3] = tested on: SF-295 (CNS cancer); conditions: Homo sapiens; SF-295, single dose 10 μM; read-out: growth inhibition (GI%)
[4] = tested on: OVCAR-5 (ovarian cancer); conditions: Homo sapiens; OVCAR-5, single dose 10 μM; read-out: growth inhibition (GI%)
[5] = tested on: SK-MEL-5 (melanoma); conditions: Homo sapiens; SK-MEL-5, single dose 10 μM; read-out: growth inhibition (GI%)
[6] = tested on: ACHN (renal cancer); conditions: Homo sapiens, single dose 10 μM, read-out: growth inhibition (GI%)
[7] = tested on: MALME-3M (melanoma); conditions: Homo sapiens, single dose 10 μM, read-out: growth inhibition (GI%)
[8] = tested on: SN12C (renal cancer); conditions: Homo sapiens, single dose 10 μM, read-out: growth inhibition (GI%)
[9] = tested on: SF-268 (CNS cancer); conditions: Homo sapiens; SF-268, single dose 10 μM; read-out: growth inhibition (GI%)
[10] = tested on: RXF 393 (renal cancer); conditions: Homo sapiens; RXF 393, single dose 10 μM; read-out: growth inhibition (GI%)
[11] = tested on: A549/ATCC (non-small cell lung cancer); conditions: Homo sapiens, single dose 10 μM, read-out: growth inhibition (GI%)
[12] = tested on: U251 (CNS cancer); conditions: Homo sapiens, U-251; U251, single dose 10 μM; read-out: growth inhibition (GI%)
[13] = tested on: RPMI-8226 (leukemia); conditions: Homo sapiens; RPMI-8226, single dose 10 μM; read-out: growth inhibition (GI%)
[14] = tested on: HS 578T (breast cancer); conditions: Homo sapiens, single dose 10 μM, read-out: growth inhibition (GI%)
[15] = tested on: OVCAR-8 (ovarian cancer); conditions: Homo sapiens; OVCAR-8, single dose 10 μM; read-out: growth inhibition (GI%)
[16] = tested on: BT-549 (breast cancer); conditions: Homo sapiens; BT-549, single dose 10 μM; read-out: growth inhibition (GI%)
[17] = tested on: OVCAR-3 (ovarian cancer); conditions: Homo sapiens; OVCAR-3, single dose 10 μM; read-out: growth inhibition (GI%)
[18] = tested on: NCI/ADR-RES (ovarian cancer); conditions: Homo sapiens, single dose 10 μM, read-out: growth inhibition (GI%)
[19] = tested on: MOLT-4 (leukemia); conditions: Homo sapiens; MOLT-4, single dose 10 μM; read-out: growth inhibition (GI%)
[20] = tested on: NCI-H522 (non-small cell lung cancer); conditions: Homo sapiens; NCI-H522, single dose 10 μM; read-out: growth inhibition (GI%)
[21] = tested on: MDA-MB-231/ATCC (breast cancer); conditions: Homo sapiens, MDA-MB-231, read-out: growth inhibition (GI%)
[22] = tested on: SW-620 (colon cancer); conditions: Homo sapiens; SW-620, single dose 10 μM; read-out: growth inhibition (GI%)
[23] = tested on: MDA-MB-435 (melanoma); conditions: Homo sapiens, MDA-MB-435, read-out: growth inhibition (GI%)
[24] = tested on: SNB-19 (CNS cancer); conditions: Homo sapiens; SNB-19, single dose 10 μM; read-out: growth inhibition (GI%)
[25] = tested on: HOP-62 (non-small cell lung cancer); conditions: Homo sapiens; HOP-62, single dose 10 μM; read-out: growth inhibition (GI%)
[26] = tested on: 786-0 (renal cancer); conditions: Homo sapiens; 786-0, single dose 10 μM; read-out: growth inhibition (GI%)
[27] = tested on: SNB-75 (CNS cancer); conditions: for inhibition at 10 µM: Homo sapiens, SNB-75, SNB-75, single dose 10 μM, read-out: growth inhibition (GI%)
[28] = tested on: COLO 205 (colon cancer); conditions: Homo sapiens; COLO 205, single dose 10 μM; read-out: growth inhibition (GI%)
[29] = tested on: HCC-2998 (colon cancer); conditions: Homo sapiens; HCC-2998, single dose 10 μM; read-out: growth inhibition (GI%)
[30] = tested on: SK-MEL-2 (melanoma); conditions: Homo sapiens; SK-MEL-2, single dose 10 μM; read-out: growth inhibition (GI%)
[31] = tested on: HOP-92 (non-small cell lung cancer); conditions: Homo sapiens; HOP-92, single dose 10 μM; read-out: growth inhibition (GI%)
[32] = tested on: LOX IMVI (melanoma); conditions: Homo sapiens, single dose 10 μM, read-out: growth inhibition (GI%)
[33] = tested on: NCI-H226 (non-small cell lung cancer); conditions: Homo sapiens; NCI-H226, single dose 10 μM; read-out: growth inhibition (GI%)
[34] = tested on: CCRF-CEM (leukemia); conditions: Homo sapiens, single dose 10 μM, read-out: growth inhibition (GI%)

| Structure (SMILES) | inhibition at 10 µM [1] [%] | inhibition at 10 µM [2] [%] | inhibition at 10 µM [3] [%] | inhibition at 10 µM [4] [%] | inhibition at 10 µM [5] [%] | inhibition at 10 µM [6] [%] | inhibition at 10 µM [7] [%] | inhibition at 10 µM [8] [%] | inhibition at 10 µM [9] [%] | inhibition at 10 µM [10] [%] | inhibition at 10 µM [11] [%] | inhibition at 10 µM [12] [%] | inhibition at 10 µM [13] [%] | inhibition at 10 µM [14] [%] | inhibition at 10 µM [15] [%] | inhibition at 10 µM [16] [%] | inhibition at 10 µM [17] [%] | inhibition at 10 µM [18] [%] | inhibition at 10 µM [19] [%] | inhibition at 10 µM [20] [%] | other results |
| --- | --- | --- | --- | --- | --- | --- | --- | --- | --- | --- | --- | --- | --- | --- | --- | --- | --- | --- | --- | --- | --- |
| CCc1cccc2cc(-c3cc(-c4ccc(OC)cc4)[nH]c(=O)c3C#N)c(Cl)nc12 [Compound 4a, 4-(2-Chloro-8-ethylquinolin-3-yl)-6-(4-methoxyphenyl)-2-oxo-1,2-dihydropyridine-3-carbonitrile] | < 10 | 19.9 | 16.7 | < 10 | 13.9 | < 10 | < 10 | < 10 | 21.4 | < 10 | < 10 | < 10 | < 10 | 14.9 | < 10 | 15.3 | < 10 | < 10 | 11.9 | 11.9 | inhibition at 10 µM [21]: 10%; inhibition at 10 µM [22]: < 10%; inhibition at 10 µM [23]: < 10%; inhibition at 10 µM [24]: < 10%; inhibition at 10 µM [25]: < 10%; inhibition at 10 µM [26]: 11.4%; inhibition at 10 µM [27]: 54.7%; growth inhibition (GI%) ([27]; SNB-75, single dose 10 μM): 45.69%; inhibition at 10 µM [28]: < 10%; inhibition at 10 µM [29]: < 10%; inhibition at 10 µM [30]: < 10%; inhibition at 10 µM [31]: 29.8%; inhibition at 10 µM [32]: < 10%; inhibition at 10 µM [33]: 15.4%; inhibition at 10 µM [34]: < 10% |
| CCc1cccc2cc(-c3cc(-c4cc(OC)c(OC)c(OC)c4)[nH]c(=S)c3C#N)c(Cl)nc12 [Compound 5c, 4-(2-Chloro-8-ethylquinolin-3-yl)-2-thioxo-6-(3,4,5-trimethoxyphenyl)-1,2-dihydropyridine-3-carbonitrile] | 31.2 | 33.9 | 31 | < 10 | 52.2 | 32.5 | < 10 | 39.7 | 31.7 | 37.3 | 38.1 | 31 | 63.1 | 32.7 | 36.7 | 21.1 | 16.9 | 28.5 | 61.2 | 65.7 | inhibition at 10 µM [21]: 52.5%; inhibition at 10 µM [22]: 10%; inhibition at 10 µM [23]: 24.9%; inhibition at 10 µM [24]: 39.1%; inhibition at 10 µM [25]: 10.6%; inhibition at 10 µM [26]: 27.9%; inhibition at 10 µM [27]: < 10%; inhibition at 10 µM [28]: 12.7%; inhibition at 10 µM [29]: 33%; inhibition at 10 µM [30]: 33%; inhibition at 10 µM [31]: 77.4%; inhibition at 10 µM [32]: 38.3%; inhibition at 10 µM [33]: 63.3%; inhibition at 10 µM [34]: 57.6% |
| CCc1cccc2cc(C3C=C(c4ccc(OC)c(OC)c4)NC(=S)N3)c(Cl)nc12 (centres unmarked) [Compound 6b, 4-(2-Chloro-8-ethylquinolin-3-yl)-6-(3,4-dimethoxyphenyl)-3,4-dihydropyrimidine-2(1H)-thione] | < 10 | 10.5 | < 10 | < 10 | 14.1 | < 10 | < 10 | < 10 | 16.6 | < 10 | < 10 | < 10 | 36.1 | 12.9 | < 10 | 12.8 | < 10 | 11.1 | 53.3 | 22.1 | inhibition at 10 µM [21]: < 10%; inhibition at 10 µM [22]: < 10%; inhibition at 10 µM [23]: < 10%; inhibition at 10 µM [24]: < 10%; inhibition at 10 µM [25]: 11%; inhibition at 10 µM [26]: < 10%; inhibition at 10 µM [27]: < 10%; inhibition at 10 µM [28]: < 10%; inhibition at 10 µM [29]: < 10%; inhibition at 10 µM [30]: < 10%; inhibition at 10 µM [31]: < 10%; inhibition at 10 µM [32]: < 10%; inhibition at 10 µM [33]: 15.4%; inhibition at 10 µM [34]: 11% |
| CCc1cccc2cc(C3C=C(c4cc(OC)c(OC)c(OC)c4)NC(=S)N3)c(Cl)nc12 (centres unmarked) [Compound 6c, 4-(2-Chloro-8-ethylquinolin-3-yl)-6-(3,4,5-trimethoxyphenyl)-3,4-dihydropyrimidine-2(1H)-thione] | 30.1 | 44.6 | 30 | < 10 | 38.2 | 24.4 | < 10 | 21.7 | 42.4 | 40.6 | 26.3 | 26.6 | 57.6 | 39.6 | 12.2 | 10.5 | 14.2 | 34 | 67.7 | 50.3 | inhibition at 10 µM [21]: 46.1%; inhibition at 10 µM [22]: 13.4%; inhibition at 10 µM [23]: 43.5%; inhibition at 10 µM [24]: 23.4%; inhibition at 10 µM [25]: 10.5%; inhibition at 10 µM [26]: 18.2%; inhibition at 10 µM [27]: 23.2%; inhibition at 10 µM [28]: 24.4%; inhibition at 10 µM [29]: 26.1%; inhibition at 10 µM [30]: 10.2%; inhibition at 10 µM [31]: 28.3%; inhibition at 10 µM [32]: 33.3%; inhibition at 10 µM [33]: 58%; inhibition at 10 µM [34]: 32.9% |
